Some test systems named below: KM12 colon; LOX IMVI melanoma; M14 melanoma; NCI-H226 lung; SF-295 CNS; SF-539 CNS; SNB-75 CNS; SW-620 colon; DU-145 prostate; MDA-MB-231 breast.
Assay in all cases: DTP human tumour cell line panel, 48 h

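A five-concentration, 48-hour dose response in 96-well plates underlies each endpoint, interpolated linearly between surrounding concentrations. GI50 is the concentration that inhibits growth by half. TGI: concentration producing complete growth inhibition.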 Where only a bound is given, the exact number is not on record here.

As usually defined, the TGI is the concentration at which net growth stops. Lower therefore signals greater sensitivity of the cells. `Nc1ccccc1C(=O)C(Br)C(Br)c1ccc2c(c1)OCO2` (stereo not given): the total growth inhibition concentration (TGI) is 33.8 µM with KM12 colon; 27.8 µM in the assay with LOX IMVI melanoma; 41.3 µM with M14 melanoma; 52.2 µM with NCI-H226 lung; over 100 µM in the assay with SF-295 CNS; 33.8 µM in the assay on SF-539 CNS. The results for the TGI in the assay on SNB-75 CNS and in the assay with SW-620 colon were 60.9 µM and over 100 µM, respectively.

As to `C/C(=N\Nc1nc2ccccc2s1)c1ccc2ccccc2n1`, the TGI in the assay with DU-145 prostate, with KM12 colon, in the assay on LOX IMVI melanoma, with M14 melanoma, with MDA-MB-231 breast and in the assay with SF-295 CNS was over 100 µM in each case. For the same compound, the TGI is over 100 µM with SF-539 CNS, 97.2 µM in the assay on SNB-75 CNS and over 100 µM in the assay on SW-620 colon.

As for `c1ccc(C2CC(=NC3CCCCC3)Nc3ccccc3N2)cc1` (stereo not given), the TGI was over 100 µM in the assay on DU-145 prostate; over 100 µM with KM12 colon; 55.2 µM with LOX IMVI melanoma; over 100 µM in the assay on M14 melanoma; over 100 µM in the assay with MDA-MB-231 breast; over 100 µM in the assay with NCI-H226 lung. Also, the TGI was over 100 µM in the assay on SF-295 CNS, 78.4 µM in the assay with SNB-75 CNS and over 100 µM in the assay on SW-620 colon.

For the compound `CN1N=C(c2ccncc2)OC1c1ccccc1F` (stereo not given), the TGI with DU-145 prostate, in the assay with KM12 colon, with LOX IMVI melanoma, in the assay with M14 melanoma, in the assay on MDA-MB-231 breast and in the assay on NCI-H226 lung was over 100 µM each time. For the same compound, the total growth inhibition concentration (TGI) in the assay with SF-295 CNS, in the assay with SF-539 CNS and in the assay with SW-620 colon was over 100 µM each time.

For `c1ccc2c(c1)CCCC/C2=N/OCC1CO1` (stereo not given), the TGI with KM12 colon is over 100 µM; in the assay on LOX IMVI melanoma it was over 100 µM; in the assay on NCI-H226 lung, 90.9 µM; in the assay with SF-295 CNS, over 100 µM; with SF-539 CNS, over 100 µM; with SNB-75 CNS, over 100 µM. The compound also returned a TGI in the assay with SW-620 colon of over 100 µM.

In the case of `CCN1C(=O)C(=C/C=C/c2ccc(N(CC)CC)cc2)C(=O)N(CC)C1=S`, the TGI in the assay on DU-145 prostate, with KM12 colon, in the assay on LOX IMVI melanoma, in the assay with M14 melanoma, in the assay on MDA-MB-231 breast and in the assay with NCI-H226 lung was over 100 µM each time. In addition, the total growth inhibition concentration (TGI) with SF-295 CNS, in the assay on SF-539 CNS and in the assay on SW-620 colon was over 100 µM in each case.

In the case of `COc1cc(C2c3cc4c(cc3[C@@H](Nc3ccc5c(c3)OCO5)C3COC(=O)[C@H]23)OCO4)cc(OC)c1O` (stereo not given in full), the TGI in the assay with KM12 colon was 6.91 µM; with LOX IMVI melanoma it was 3.4 µM; with NCI-H226 lung it was 2.06 µM; in the assay with SF-295 CNS, 5.3 µM; in the assay with SF-539 CNS, 2.41 µM; in the assay with SW-620 colon, over 37.6 µM.

Regarding `Cc1c(-c2ccccc2)[nH]n(C2=NCCN2)c1=O`, the TGI in the assay with KM12 colon, in the assay with LOX IMVI melanoma, with M14 melanoma, in the assay on MDA-MB-231 breast, with NCI-H226 lung and in the assay with SF-295 CNS was over 100 µM each time. The total growth inhibition concentration (TGI) in the assay with SF-539 CNS, in the assay with SNB-75 CNS and in the assay with SW-620 colon was over 100 µM each time.

One may read the GI50 as the concentration giving 50% growth inhibition. Consider `CC(=O)Oc1c(C)c(C)c2c(c1C)CCC(C)(CC(=O)OCCCCCCCCCCC[P+](c1ccccc1)(c1ccccc1)c1ccccc1)O2` (stereo not given), for which the GI50 is 384 nM in the assay with DU-145 prostate; 408 nM with M14 melanoma; 386 nM in the assay on NCI-H226 lung; 264 nM in the assay on SF-295 CNS; 411 nM with SF-539 CNS; 315 nM in the assay on SW-620 colon. For the same compound, the TGI in the assay on DU-145 prostate turned out to be 1.34 µM; in the assay with M14 melanoma, 1.56 µM; in the assay on NCI-H226 lung, 25.4 µM; in the assay on SF-295 CNS it was 1.09 µM; in the assay with SF-539 CNS it was 1.47 µM; in the assay with SW-620 colon, 1.33 µM.

On to `S=C1NC2=C(CSC/C2=C\c2ccccc2)C(c2ccccc2)N1` (stereo not given), for which the TGI with DU-145 prostate, in the assay on KM12 colon, with LOX IMVI melanoma, with M14 melanoma, in the assay on MDA-MB-231 breast and in the assay on NCI-H226 lung was over 100 µM throughout. In addition, the TGI is 89.1 µM in the assay on SF-295 CNS, over 100 µM in the assay with SF-539 CNS and over 100 µM with SW-620 colon.

On to `O=[N+]([O-])c1cccc2c(N=Nc3ccc4ccccc4c3O)c(O)cc(S(=O)(=O)O)c12`, for which the TGI was over 100 µM in the assay on KM12 colon; over 100 µM in the assay with LOX IMVI melanoma; 51.2 µM with M14 melanoma; over 100 µM in the assay on NCI-H226 lung; over 100 µM in the assay on SF-295 CNS; over 100 µM in the assay with SNB-75 CNS. Besides, the TGI in the assay with SW-620 colon was over 100 µM.

For `C[C@H]1OC(=O)[C@@H]2N=NN(Cc3ccccc3)[C@H]12`, the total growth inhibition concentration (TGI) in the assay on DU-145 prostate, in the assay with KM12 colon, in the assay with M14 melanoma, in the assay on MDA-MB-231 breast, with SF-295 CNS and with SF-539 CNS was over 100 µM in each case. In the assay with SW-620 colon, the total growth inhibition concentration (TGI) is over 100 µM.

On to `CSc1nc2c(ncn2C2OC(CO)C(O)C(O)C2O)c(=O)[nH]1` (stereo not given), for which the TGI in the assay on KM12 colon, in the assay on LOX IMVI melanoma, in the assay with NCI-H226 lung, in the assay on SF-295 CNS, with SF-539 CNS and in the assay with SNB-75 CNS was over 100 µM each time. In the assay on SW-620 colon, this compound registered a TGI of over 100 µM.

As to `C=C1C(=O)C23C(O)CC4C5(C)CCCC4(C(O)OC5)C2C(OC(C)=O)CC1C3O` (stereo not given), the TGI in the assay with KM12 colon was determined as 22.1 µM; in the assay on LOX IMVI melanoma, 29.2 µM; with M14 melanoma, 15.1 µM; in the assay on NCI-H226 lung it was 37.1 µM; in the assay with SF-295 CNS, 41.4 µM; in the assay on SF-539 CNS it was 25.8 µM. Further, the TGI amounted to 16.6 µM with SNB-75 CNS and 10.6 µM in the assay with SW-620 colon.

Take `CCOC(=O)c1c(SCCN2CCOCC2)n(-c2ccccc2)c(=S)n(-c2ccccc2)c1=O`: the TGI is over 100 µM in the assay with KM12 colon; 33.3 µM in the assay on LOX IMVI melanoma; over 100 µM with M14 melanoma; over 100 µM in the assay on MDA-MB-231 breast; over 100 µM in the assay on NCI-H226 lung; 61.2 µM in the assay on SF-295 CNS. The TGI in the assay on SNB-75 CNS is over 100 µM; in the assay with SW-620 colon, 41.6 µM.

Turning to `O=S1(=O)c2cnccc2NC(=NCc2ccccc2)N1c1ccccc1`, the TGI in the assay with DU-145 prostate, in the assay on KM12 colon, with LOX IMVI melanoma, in the assay with M14 melanoma, in the assay with NCI-H226 lung and in the assay on SF-295 CNS was over 100 µM throughout. Besides, the TGI with SF-539 CNS, in the assay on SNB-75 CNS and with SW-620 colon was over 100 µM each time.

With `O=C(/C=C/c1ccc2c(c1)OCO2)Cc1nc2ccccc2[nH]c1=O`, the concentration for total growth inhibition (TGI) was 71.6 µM with DU-145 prostate; over 100 µM in the assay on KM12 colon; over 100 µM with LOX IMVI melanoma; over 100 µM in the assay with M14 melanoma; 41.7 µM with MDA-MB-231 breast; 52.7 µM in the assay on SF-295 CNS. Moreover, the TGI in the assay on SF-539 CNS and in the assay on SW-620 colon was over 100 µM in each case.

On to `COc1ccc(/C=N/n2c(C)nc3c(sc(=S)n3-c3ccccc3)c2=O)cc1`, for which the TGI in the assay with KM12 colon was over 100 µM; in the assay on NCI-H226 lung it was over 100 µM; in the assay with SF-295 CNS, over 100 µM; in the assay on SF-539 CNS, over 100 µM; with SNB-75 CNS, 41.4 µM; in the assay on SW-620 colon, over 100 µM.

Consider `CN1CCN(C2=C(Cl)C3(OCCS3)C(F)(F)C2(F)F)CC1` (stereo not given), for which the TGI in the assay with DU-145 prostate, with LOX IMVI melanoma, with M14 melanoma, with MDA-MB-231 breast, in the assay with NCI-H226 lung and in the assay on SF-295 CNS was over 100 µM each time. Also, the TGI in the assay on SF-539 CNS, in the assay with SNB-75 CNS and in the assay on SW-620 colon was over 100 µM in each case.

Take `CN(C)CCCNC(=O)c1c(O)c2ccccc2n(C)c1=O`: the TGI with DU-145 prostate, in the assay on KM12 colon, in the assay on LOX IMVI melanoma, in the assay on MDA-MB-231 breast, in the assay with NCI-H226 lung and with SF-295 CNS was over 100 µM each time. The TGI in the assay with SF-539 CNS, in the assay on SNB-75 CNS and in the assay with SW-620 colon was over 100 µM each time.

Consider `CCOP(=O)(OCC)OC1CC(n2cc(C)c(=O)n(C)c2=O)OC1CO[Si](C)(C)C(C)(C)C` (stereo not given), for which the TGI in the assay with DU-145 prostate, in the assay on KM12 colon, with LOX IMVI melanoma, in the assay on M14 melanoma, in the assay on NCI-H226 lung and with SF-295 CNS was over 100 µM in each case. The TGI in the assay on SF-539 CNS, in the assay with SNB-75 CNS and with SW-620 colon was over 100 µM each time.

As for `COc1cc(/C=C2\CCC(C)/C(=C\c3cc(OC)c(OC)c(OC)c3)C2=O)cc(OC)c1OC` (stereo not given), the TGI in the assay on DU-145 prostate was over 100 µM; in the assay on KM12 colon, 8.46 µM; in the assay on LOX IMVI melanoma it was over 100 µM; in the assay on M14 melanoma it was 4.42 µM; in the assay with MDA-MB-231 breast it was over 100 µM; in the assay on SNB-75 CNS, 50.8 µM. Moreover, the TGI in the assay on SW-620 colon was over 100 µM.

On to `O=C1C2=Nc3ccccc3C(O)(C(=O)O)N2c2ccccc21` (stereo not given), for which the TGI in the assay on DU-145 prostate is 29.8 µM; in the assay with KM12 colon, over 100 µM; in the assay with LOX IMVI melanoma, 59.2 µM; in the assay on MDA-MB-231 breast it was 35.4 µM; in the assay on NCI-H226 lung it was over 100 µM; with SF-295 CNS, 39.9 µM. Besides, the TGI is 48.4 µM in the assay with SF-539 CNS, 74.2 µM in the assay on SNB-75 CNS and over 100 µM in the assay with SW-620 colon.

The record behind these values is PubChem BioAssay (NCI).
